PubChem BioAssay AID342 (DTP/NCI, 2004)
Values joined by “and” are separate entries in the source; they are usually repeats but may differ in a detail not shown here. Equal entries are not always repeated.

System: Swiss mice, Sarcoma 180 sc, mean tumor weight T/C
Assay: NCI In Vivo Anticancer Drug Screen. Data for tumor model Sarcoma 180 (subcutaneous) in Swiss mice
Details: endpoint: mean tumor weight, higher = larger tumour
Procedure, shortened: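 Tumor-bearing mice, transplantable tumor; readout survival or tumor size; result = T/C, treated vs vehicle control.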

[1] = dose: 0.5 mg/kg/injection, schedule: Q01DX007 (ip), vehicle: carboxymethylcellulose (CMC)

Compound: c1ccc2[nH]cnc2c1
- T/C (dose: 31.25 mg/kg/injection, schedule: Q#A X014 (ip), vehicle: carboxymethylcellulose (CMC)): 52 % of control
- T/C (dose: 37.12 mg/kg/injection, schedule: Q01DX007 (ip), vehicle: carboxymethylcellulose (CMC)): 84 % of control
- T/C (dose: 46.25 mg/kg/injection, schedule: Q01DX007 (ip), vehicle: carboxymethylcellulose (CMC)): 103 % of control
- T/C (dose: 62.5 mg/kg/injection, schedule: Q#A X014 (ip), vehicle: carboxymethylcellulose (CMC)): 95 % of control
- T/C (dose: 74.25 mg/kg/injection, schedule: Q01DX007 (ip), vehicle: carboxymethylcellulose (CMC)): 76 % of control
- T/C (dose: 92.5 mg/kg/injection, schedule: Q01DX007 (ip), vehicle: carboxymethylcellulose (CMC)): 94 % of control
- T/C (dose: 125.0 mg/kg/injection, schedule: Q#A X014 (ip), vehicle: carboxymethylcellulose (CMC)): 84 % of control
- T/C (dose: 148.5 mg/kg/injection, schedule: Q01DX007 (ip), vehicle: carboxymethylcellulose (CMC)): 76 % of control
- T/C (dose: 185.0 mg/kg/injection, schedule: Q01DX007 (ip), vehicle: carboxymethylcellulose (CMC)): 89 % of control
- T/C (dose: 250.0 mg/kg/injection, schedule: Q#A X014 (ip), vehicle: carboxymethylcellulose (CMC)): 51 % of control
- T/C (dose: 297.0 mg/kg/injection, schedule: Q01DX007 (ip), vehicle: carboxymethylcellulose (CMC)): 62 % of control

Compound: CC(=O)Nc1cc2oc3ccccc3c2cc1[N+](=O)[O-]
- T/C (dose: 220.0 mg/kg/injection, schedule: Q01DX007 (ip), vehicle: methylcellulose (MC)): 67 % of control
- T/C (dose: 335.0 mg/kg/injection, schedule: Q01DX007 (ip), vehicle: methylcellulose (MC)): 67 % of control
- T/C (dose: 400.0 mg/kg/injection, schedule: Q01DX007 (ip), vehicle: methylcellulose (MC)): 72 % of control
- T/C (dose: 500.0 mg/kg/injection, schedule: Q01DX007 (ip), vehicle: methylcellulose (MC)): 52 % of control
- T/C (dose: 600.0 mg/kg/injection, schedule: Q01DX007 (ip), vehicle: methylcellulose (MC)): 77 % of control

Compound: COc1ccc2c3c(c4cc(OC)c(OC)cc4c2c1)C[C@H]1CCCCN1C3
- T/C [1]: 82 % of control
- T/C (dose: 1.0 mg/kg/injection, schedule: Q01DX007 (ip), vehicle: carboxymethylcellulose (CMC)): 65 % of control

Compound: CCCCCCCCCCCCCCCC[N+]1(C)CCN(SN2CC[N+](C)(CCCCCCCCCCCCCCCC)CC2)CC1
- T/C (dose: 21.0 mg/kg/injection, schedule: Q#A X014 (ip), vehicle: saline): 55 % of control and 77 % of control
- T/C (dose: 31.5 mg/kg/injection, schedule: Q#A X014 (ip), vehicle: saline): 53 % of control and 76 % of control
- T/C (dose: 47.5 mg/kg/injection, schedule: Q#A X014 (ip), vehicle: saline): 65 % of control
- T/C (dose: 71.5 mg/kg/injection, schedule: Q#A X014 (ip), vehicle: saline): 37 % of control

Compound: Nc1ncnc2c1ncn2C1OC(COCc2ccccc2)C(OCc2ccccc2)C1OCc1ccccc1 (stereo not given)
- T/C (dose: 10.0 mg/kg/injection, schedule: Q01DX007 (ip), vehicle: saline): 88 % of control
- T/C (dose: 20.0 mg/kg/injection, schedule: Q01DX007 (ip), vehicle: saline): 86 % of control and 107 % of control
- T/C (dose: 40.0 mg/kg/injection, schedule: Q01DX007 (ip), vehicle: saline): 64 % of control and 87 % of control
- T/C (dose: 160.0 mg/kg/injection, schedule: Q01DX007 (ip), vehicle: saline): 99 % of control

Compound: CC(C)OC(=O)C1(N)CCCC1
- T/C (dose: 33.0 mg/kg/injection, schedule: Q#A X014 (ip), vehicle: saline): 61 % of control
- T/C (dose: 50.0 mg/kg/injection, schedule: Q#A X014 (ip), vehicle: saline): 67 % of control
- T/C (dose: 75.0 mg/kg/injection, schedule: Q#A X014 (ip), vehicle: saline): 49 % of control
- T/C (dose: 112.5 mg/kg/injection, schedule: Q#A X014 (ip), vehicle: saline): 20 % of control

Compound: COC(=O)[C@H]1[C@H]2C[C@@H]3c4[nH]c5cc(OC)ccc5c4CCN3C[C@H]2C[C@@H](OC(=O)c2cc(OC)c(OC)c(OC)c2)[C@@H]1OC
- T/C (dose: 0.44 mg/kg/injection, schedule: Q01DX007 (ip), vehicle: carboxymethylcellulose (CMC)): 101 % of control
- T/C [1]: 91 % of control
- T/C (dose: 0.66 mg/kg/injection, schedule: Q01DX007 (ip), vehicle: carboxymethylcellulose (CMC)): 79 % of control
- T/C (dose: 2.0 mg/kg/injection, schedule: Q01DX007 (ip), vehicle: carboxymethylcellulose (CMC)): 35 % of control
- T/C (dose: 2.3 mg/kg/injection, schedule: Q01DX007 (ip), vehicle: carboxymethylcellulose (CMC)): 42 % of control
- T/C (dose: 3.4 mg/kg/injection, schedule: Q01DX007 (ip), vehicle: carboxymethylcellulose (CMC)): 18 % of control

Compound: CC(=O)OC/N=[N+](/C)[O-]
- T/C (dose: 4.68 mg/kg/injection, schedule: Q01DX007 (ip), vehicle: saline): 84 % of control
- T/C (dose: 9.37 mg/kg/injection, schedule: Q01DX007 (ip), vehicle: saline): 54 % of control

Compound: Oc1cc(O)c2c(c1)O[C@H](c1ccc(O)c(O)c1)[C@@H](O)C2
- T/C (dose: 6.25 mg/kg/injection, schedule: Q01DX007 (ip), vehicle: saline): 84 % of control
- T/C (dose: 12.5 mg/kg/injection, schedule: Q01DX007 (ip), vehicle: saline): 99 % of control
- T/C (dose: 25.0 mg/kg/injection, schedule: Q01DX007 (ip), vehicle: saline): 88 % of control
- T/C (dose: 100.0 mg/kg/injection, schedule: Q01DX007 (ip), vehicle: saline): 83 % of control
- T/C (dose: 200.0 mg/kg/injection, schedule: Q01DX007 (ip), vehicle: saline): 87 % of control
- T/C (dose: 400.0 mg/kg/injection, schedule: Q01DX007 (ip), vehicle: saline): 80 % of control

Compound: CCN(CC)c1ccc(/C=C/c2ccnc3ccccc23)cc1
- T/C (dose: 1.94 mg/kg/injection, schedule: Q01DX007 (ip), vehicle: carboxymethylcellulose (CMC)): 77 % of control
- T/C (dose: 3.88 mg/kg/injection, schedule: Q01DX007 (ip), vehicle: carboxymethylcellulose (CMC)): 66 % of control
- T/C (dose: 6.2 mg/kg/injection, schedule: Q01DX007 (ip), vehicle: other): 63 % of control
- T/C (dose: 7.5 mg/kg/injection, schedule: Q01DX007 (ip), vehicle: other): 96 % of control
- T/C (dose: 7.75 mg/kg/injection, schedule: Q01DX007 (ip), vehicle: carboxymethylcellulose (CMC)): 40 % of control
- T/C (dose: 7.75 mg/kg/injection, schedule: Q01DX007 (ip), vehicle: other): 58 % of control
- T/C (dose: 10.0 mg/kg/injection, schedule: Q01DX007 (ip), vehicle: other): 107 % of control
- T/C (dose: 10.33 mg/kg/injection, schedule: Q01DX007 (ip), vehicle: other): 72 % of control
- T/C (dose: 12.0 mg/kg/injection, schedule: Q01DX007 (ip), vehicle: other): 110 % of control
- T/C (dose: 12.31 mg/kg/injection, schedule: Q01DX007 (ip), vehicle: carboxymethylcellulose (CMC)): 93 % of control and 110 % of control
- T/C (dose: 15.5 mg/kg/injection, schedule: Q01DX007 (ip), vehicle: other): 90 % of control
- T/C (dose: 24.62 mg/kg/injection, schedule: Q01DX007 (ip), vehicle: carboxymethylcellulose (CMC)): 59 % of control and 70 % of control
- T/C (dose: 49.25 mg/kg/injection, schedule: Q01DX007 (ip), vehicle: carboxymethylcellulose (CMC)): 53 % of control

Compound: CC1(C)O[C@@H]2C[C@H]3[C@@H]4CCC5=CC(=O)CC[C@]5(C)[C@@]4(F)[C@@H](O)C[C@]3(C)[C@]2(C(=O)CO)O1
- T/C (dose: 2.2 mg/kg/injection, schedule: Q#A X014 (sc), vehicle: steriod suspending solution): 53 % of control and 63 % of control
- T/C (dose: 2.3 mg/kg/injection, schedule: Q01DX007 (sc), vehicle: steriod suspending solution): 61 % of control
- T/C (dose: 3.3 mg/kg/injection, schedule: Q#A X014 (sc), vehicle: steriod suspending solution): 62 % of control
- T/C (dose: 3.5 mg/kg/injection, schedule: Q01DX007 (sc), vehicle: steriod suspending solution): 47 % of control
- T/C (dose: 5.0 mg/kg/injection, schedule: Q#A X014 (sc), vehicle: steriod suspending solution): 27 % of control
- T/C (dose: 5.3 mg/kg/injection, schedule: Q01DX007 (sc), vehicle: steriod suspending solution): 43 % of control
- T/C (dose: 7.5 mg/kg/injection, schedule: Q#A X014 (sc), vehicle: steriod suspending solution): 24 % of control
- T/C (dose: 12.0 mg/kg/injection, schedule: Q01DX007 (sc), vehicle: steriod suspending solution): 36 % of control
- T/C (dose: 27.0 mg/kg/injection, schedule: Q01DX007 (sc), vehicle: steriod suspending solution): 39 % of control and 40 % of control
- T/C (dose: 40.0 mg/kg/injection, schedule: Q01DX007 (sc), vehicle: steriod suspending solution): 32 % of control
- T/C (dose: 60.0 mg/kg/injection, schedule: Q01DX007 (sc), vehicle: steriod suspending solution): 24 % of control
- T/C (dose: 90.0 mg/kg/injection, schedule: Q01DX007 (sc), vehicle: steriod suspending solution): 19 % of control and 30 % of control
- T/C (dose: 130.0 mg/kg/injection, schedule: Q01DX007 (sc), vehicle: steriod suspending solution): 16 % of control
